In patent US7462600B2, “Macrolides” (Pfizer Inc, priority 2004, dated 2008):
≈ marks a conversion by molar mass, not a printed value.

What was measured:
Type in all cases: cell-based
[1] = tested on: Streptococcus pyogenes 1079; assay: MIC, microtiter broth dilution (NCCLS M100-S14), S. pyogenes 1079 (ermB); conditions: Streptococcus pyogenes 1079
Procedure, shortened: (§1)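 Broth dilution was run in microtiter trays and read per NCCLS M100-S14 to give MICs. Compounds came from 40 mg/ml DMSO stock solutions. The strain panel paired macrolide-susceptible parents with macrolide-resistant derivatives.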

[2] = tested on: Streptococcus pneumoniae 1016; assay: MIC, microtiter broth dilution (NCCLS M100-S14), S. pneumoniae 1016 (susceptible); conditions: Streptococcus pneumoniae 1016
Procedure, shortened: as §1

[3] = tested on: Streptococcus pneumoniae 1095; conditions: Streptococcus pneumoniae 1095; microtiter broth dilution
Procedure, shortened: as §1

[4] = tested on: Streptococcus pneumoniae 1175; conditions: Streptococcus pneumoniae 1175; microtiter broth dilution
Procedure, shortened: as §1

[5] = tested on: Haemophilus influenzae 1218; assay: MIC, microtiter broth dilution (NCCLS M100-S14), H. influenzae 1218 (susceptible); conditions: Haemophilus influenzae 1218
Procedure, shortened: as §1

SMILES | MIC S. pyogenes 1079 [1] [µg/mL] | MIC S. pneumo. 1016 [2] [µg/mL] | MIC S. pneumo. 1095 [3] [µg/mL] | MIC S. pneumo. 1175 [4] [µg/mL] | MIC H. influenzae 1218 [5] [µg/mL]
CCC1OC(=O)C(C)C(=O)C(C)C(OC2OC(C)CC(N(C)C)C2O)C(C)(OC)CC(C)C(=O)C(C)C2N(C3CN(S(=O)(=O)c4cncc(-c5cnco5)c4)C3)C(=O)OC12C (stereo not shown) [Example 3.75] | 16 (≈ 18.3 µM) | <0.06 | <0.06 | <0.06 | 1 (≈ 1.14 µM)
CCC1OC(=O)C(C)C(=O)C(C)C(OC2OC(C)CC(N(C)C)C2O)C(C)(OC)CC(C)C(=O)C(C)C2N(C3CN(S(=O)(=O)c4ccc(-c5nncs5)cc4)C3)C(=O)OC12C (stereo not shown) [Example 3.76, 3-descladinosyl-11,12-dideoxy-6-O-methyl-3-oxo-12,11-(oxycarbonyl-(1-(4-(1,3,4-thiadiazol-2-yl)benzenesulfonyl)-azetidin-3-yl)-imino)-erythromycin A] | 0.12 (≈ 0.135 µM) | <0.06 | <0.06 | <0.06 | 0.5 (≈ 0.56 µM)
CCC1OC(=O)C(C)C(=O)C(C)C(OC2OC(C)CC(N(C)C)C2O)C(C)(OC)CC(C)C(=O)C(C)C2N(C3CN(S(=O)(=O)c4ccc(F)c(C#N)c4)C3)C(=O)OC12C (stereo not shown) [Example 3.77, 3-descladinosyl-11,12-dideoxy-6-O-methyl-3-oxo-12,11-(oxycarbonyl-(1-(3-cyano-4-fluorobenzenesulfonyl)-azetidin-3-yl)-imino)-erythromycin A] | 8 (≈ 9.4 µM) | <0.06 | <0.06 | <0.06 | 1 (≈ 1.18 µM)
CCC1OC(=O)C(C)C(=O)C(C)C(OC2OC(C)CC(N(C)C)C2O)C(C)(OC)CC(C)C(=O)C(C)C2N(C3CN(S(=O)(=O)c4ccc(-c5ccc(Cl)nn5)cc4)C3)C(=O)OC12C (stereo not shown) [Example 3.78] | 64 (≈ 69.5 µM) | <0.06 | <0.06 | <0.06 | 4 (≈ 4.35 µM)
CCC1OC(=O)C(C)C(=O)C(C)C(OC2OC(C)CC(N(C)C)C2O)C(C)(OC)CC(C)C(=O)C(C)C2N(C3CN(S(=O)(=O)c4ccc5ncsc5c4)C3)C(=O)OC12C (stereo not shown) [Example 3.79] | 1 (≈ 1.16 µM) | <0.06 | <0.06 | <0.06 | 0.25 (≈ 0.289 µM)
CCC1OC(=O)C(C)C(=O)C(C)C(OC2OC(C)CC(N(C)C)C2O)C(C)(OC)CC(C)C(=O)C(C)C2N(C3CN(S(=O)(=O)c4cncc(-n5cccn5)c4)C3)C(=O)OC12C (stereo not shown) [Example 3.80, 3-descladinosyl-11,12-dideoxy-6-O-methyl-3-oxo-12,11-(oxycarbonyl-(1-(5-(1H-pyrazol-1-yl)pyridine-3-sulfonyl)-azetidin-3-yl)-imino)erythromycin A] | 4 (≈ 4.57 µM) | <0.06 | <0.06 | <0.06 | >64.00
CCC1OC(=O)C(C)C(=O)C(C)C(OC2OC(C)CC(N(C)C)C2O)C(C)(OC)CC(C)C(=O)C(C)C2N(C3CN(S(=O)(=O)c4ccc(-n5ccnc5)c(F)c4)C3)C(=O)OC12C (stereo not shown) [Example 3.81, 3-descladinosyl-11,12-dideoxy-4-O-methyl-3-oxo-12,11-(oxycarbonyl-(1-(3-fluoro-4-(1H-imidazol-1-yl)benzenesulfonyl)-azetidin-3-yl)-imino)-erythromycin A] | 4 (≈ 4.48 µM) | <0.06 | <0.06 | <0.06 | 1 (≈ 1.12 µM)
CCC1OC(=O)C(C)C(=O)C(C)C(OC2OC(C)CC(N(C)C)C2O)C(C)(OC)CC(C)C(=O)C(C)C2N(C3CN(S(=O)(=O)c4ccc(-n5ccnc5)cc4)C3)C(=O)OC12C (stereo not shown) [Example 3.82, 3-descladinosyl-11,12-dideoxy-6-O-methyl-3-oxo-12,11-(oxycarbonyl-(1-(4-(1H-imidazol-1-yl)benzenesulfonyl)-azetidin-3-yl)-imino)erythromycin A] | 2 (≈ 2.29 µM) | <0.06 | <0.06 | <0.06 | 0.25 (≈ 0.286 µM)
CCC1OC(=O)C(C)C(=O)C(C)C(OC2OC(C)CC(N(C)C)C2O)C(C)(OC)CC(C)C(=O)C(C)C2N(C3CN(S(=O)(=O)c4ccc5c(c4)CCC5)C3)C(=O)OC12C (stereo not shown) [Example 3.83] | 32 (≈ 37.7 µM) | <0.06 | <0.06 | <0.06 | 1 (≈ 1.18 µM)
CCC1OC(=O)C(C)C(=O)C(C)C(OC2OC(C)CC(N(C)C)C2O)C(C)(OC)CC(C)C(=O)C(C)C2N(C3CN(S(=O)(=O)c4ccc(-c5nnn[nH]5)cc4)C3)C(=O)OC12C (stereo not shown) [Example 3.84, 4-(1H-tetrazol-5-yl)benzenesulfonyl] | >64.00 | 1 (≈ 1.14 µM) | >64.00 | 16 (≈ 18.3 µM) | 32 (≈ 36.5 µM)
CCC1OC(=O)C(C)C(=O)C(C)C(OC2OC(C)CC(N(C)C)C2O)C(C)(OC)CC(C)C(=O)C(C)C2N(C3CN(S(=O)(=O)c4ccc5cn[nH]c5c4)C3)C(=O)OC12C (stereo not shown) [Example 3.85, 3-descladinosyl-11,12-dideoxy-6-O-methyl-3-oxo-12,11-(oxycarbonyl-(1-(1H-indazole-6-sulfonyl)-azetidin-3-yl)-imino)-erythromycin A] | 1 (≈ 1.18 µM) | <0.06 | <0.06 | <0.06 | 0.25 (≈ 0.295 µM)
CCC1OC(=O)C(C)C(=O)C(C)C(OC2OC(C)CC(N(C)C)C2O)C(C)(OC)CC(C)C(=O)C(C)C2N(C3CN(S(=O)(=O)c4ccc(-n5cccn5)c(F)c4)C3)C(=O)OC12C (stereo not shown) [Example 3.86, 3-descladinosyl-11,12-dideoxy-6-O-methyl-3-oxo-12,11-(oxycarbonyl-(1-(3-fluoro-4-(1H-pyrazol-1-yl)benzenesulfonyl)-azetidin-3-yl)-imino)-erythromycin A] | 1 (≈ 1.12 µM) | <0.06 | <0.06 | <0.06 | 1 (≈ 1.12 µM)
CCC1OC(=O)C(C)C(=O)C(C)C(OC2OC(C)CC(N(C)C)C2O)C(C)(OC)CC(C)C(=O)C(C)C2N(C3CN(S(=O)(=O)c4ccc5[nH]ncc5c4)C3)C(=O)OC12C (stereo not shown) [Example 3.87, 3-descladinosyl-11,12-dideoxy-6-O-methyl-3-oxo-12,11-(oxycarbonyl-(1-(1H-indazole-5-sulfonyl)-azetidin-3-yl)-imino)-erythromycin A] | 0.19 (≈ 0.224 µM) | <0.06 | <0.06 | <0.06 | 0.19 (≈ 0.224 µM)
CCC1OC(=O)C(C)C(=O)C(C)C(OC2OC(C)CC(N(C)C)C2O)C(C)(OC)CC(C)C(=O)C(C)C2N(C3CN(S(=O)(=O)c4ccc(F)c(-c5cnco5)c4)C3)C(=O)OC12C (stereo not shown) [Example 3.88, 3-descladinosyl-11,12-dideoxy-6-O-methyl-3-oxo-12,11-(oxycarbonyl-(1-(4-fluoro-3-(oxazol-5-yl)benzenesulfonyl)-azetidin-3-yl)-imino)-erythromycin A] | 8 (≈ 8.96 µM) | <0.06 | <0.06 | <0.06 | 2 (≈ 2.24 µM)
CCC1OC(=O)C(C)C(=O)C(C)C(OC2OC(C)CC(N(C)C)C2O)C(C)(OC)CC(C)C(=O)C(C)C2N(C3CN(S(=O)(=O)c4ccc5sc(C)nc5c4)C3)C(=O)OC12C (stereo not shown) [Example 3.90, 3-descladinosyl-11,12-dideoxy-6-O-methyl-3-oxo-12,11-(oxycarbonyl-(1-(2-methylbenzo[d]thiazole-5-sulfonyl)-azetidin-3-yl)-imino)-erythromycin A] | 8 (≈ 9.1 µM) | <0.06 | <0.06 | <0.06 | 0.25 (≈ 0.284 µM)
CCC1OC(=O)C(C)C(=O)C(C)C(OC2OC(C)CC(N(C)C)C2O)C(C)(OC)CC(C)C(=O)C(C)C2N(C3CN(S(=O)(=O)c4ccc5ccccc5c4)C3)C(=O)OC12C (stereo not shown) [Example 3.91, 3-descladinosyl-11,12-dideoxy-4-O-methyl-3-oxo-12,11-(oxycarbonyl-(1-(naphthalene-2-sulfonyl)-azetidin-3-yl)-imino)-erythromycin A] | 4 (≈ 4.66 µM) | <0.06 | <0.06 | <0.06 | 0.12 (≈ 0.14 µM)
CCC1OC(=O)C(C)C(=O)C(C)C(OC2OC(C)CC(N(C)C)C2O)C(C)(OC)CC(C)C(=O)C(C)C2N(C3CN(S(=O)(=O)c4cccc5cnncc45)C3)C(=O)OC12C (stereo not shown) [Example 3.92, 3-descladinosyl-11,12-dideoxy-6-O-methyl-3-oxo-12,11-(oxycarbonyl-(1-(phthalazine-5-sulfonyl)-azetidin-3-yl)-imino)-erythromycin A] | 4 (≈ 4.65 µM) | <0.06 | <0.06 | <0.06 | 1 (≈ 1.16 µM)
